Test results: patent US20230405006A1, “COMBINATION PHARMACEUTICAL COMPOSITION AND TREATMENT METHOD” (CARNA BIOSCIENCES, INC., priority 2020, published 2023)

Tests used:
[1] = test system: mouse colorectal cancer cell line CT26.WT; assay: Antitumor effect in allograft (syngeneic) mouse model with mouse colorectal cancer cell line CT26.WT; assay type: in vivo; details: for tumor growth (time course of tumor volume): CT26.WT subcutaneous, FIG. 1
Method: The antitumor effect of the compound according to the present invention was examined by using a syngeneic mouse tumor model with the mouse colorectal cancer cell line CT26.WT (subcutaneous transplantation).
(§1) To RPMI-1640 medium (Life Technologies, No. A1049101), 10% FBS (Biowest) and 1% penicillin streptomycin (NACALAI TESQUE, INC.) were added to prepare a cell culture medium (hereinafter, referred to as the medium 1). CT26.WT cells (ATCC) were cultured with the medium 1 in a flask in a 5% CO2 incubator.
The cell density of CT26.WT cells was adjusted with RPMI-1640 medium (containing 1% penicillin streptomycin, hereinafter, referred to as the medium 2) to 5×10^6 cells/mL; thus a cell preparation solution for transplantation was produced. Into the back of each BALB/cCrslc mouse (female, 8-week-old, Japan SLC, Inc.), 0.1 mL of the cell preparation solution for transplantation was subcutaneously transplanted. On day 3 after the transplantation of cancer cells, the cancer-bearing mice were grouped in such a manner that the means of tumor volume (see a calculation formula below) approximated to each other.
As a sample solution for administration of the test substance, a 1.5 mg/mL solution was prepared. The test substance (71.9 mg) was dissolved in DMSO (2.4 mL, NACALAI TESQUE, INC.), to which polyethylene glycol #400 (24.0 mL, NACALAI TESQUE, INC.) was added and mixed well, and 21.5 mL of 30% (w/v) aqueous solution of 2-hydroxypropyl-β-cyclodextrin (HP-β-CD, Wacker Chemical AG) was then added thereto to produce a 1.5 mg/mL sample solution for administration. […]
Forced oral administration of 0.1 mL of the test substance or a solvent per 10 g body weight on that day (15 mg/kg) was performed to each mouse with transplanted cancer cells (six mice per group) twice per day (interval: 6 hours or longer) from day 3 to day 21 after the transplantation. […] The mice were followed up until day 48 after the transplantation, and the tumor diameter of each mouse was measured to calculate the tumor volume by using the following formula several times per week for evaluation of the antitumor effect. […]

[2] = test system: mouse B-cell lymphoma cell line A20; assay: Antitumor effect in allograft (syngeneic) mouse model with mouse B-cell lymphoma cell line A20; assay type: in vivo
Method: The antitumor effect of the compound according to the present invention was examined by using a syngeneic mouse tumor model with the mouse B-cell lymphoma cell line A20 (subcutaneous transplantation).
as §1, with “FBS (HyClone), 0.05 mM 2-mercaptoethanol,” for “FBS (Biowest)”, “medium 3). A20 cell” for “medium 1). CT26.WT cells”, “medium 3” for “medium 1”
The density of A20 cells was adjusted with the medium 2 to 5×10^7 cells/mL; thus a cell preparation solution for transplantation was produced. […]
Forced oral administration of 0.1 mL of the test substance or a solvent per 10 g body weight on that day (15 mg/kg) was performed to each mouse with transplanted cancer cells (six mice per group) twice per day (interval: 6 hours or longer) from day 3 to day 14 after the transplantation. […] The mice were followed up until day 46 after the transplantation, and the tumor diameter of each mouse was measured to calculate the tumor volume by using the same formula as in Example 1 several times per week for evaluation of the antitumor effect.
In addition, tumor was excised from each mouse on day 46 after the transplantation, and the tumor weight was measured.

In the case of `Nc1nc(-c2cccc(-n3ccc4cc(C5CC5)cc(F)c4c3=O)c2CO)c2cc(C3=CCN(C4COC4)CC3)[nH]c2n1` [Compound (I-A), 2-(3-{2-amino-6-[1-(oxetan-3-yl)-1,2,3,6-tetrahydropyridin-4-yl]-7H-pyrrolo[2,3-d]pyrimidin-4-yl}-2-(hydroxymethyl)phenyl)-6-cyclopropyl-8-fluoroisoquinolin-1(2H)-one], the “tumor growth (time course of tumor volume)” value ([1]; I-A 15 mg/kg oral twice per day in combination with anti-PD-1 antibody 10 mg/kg i.p. twice per week) is reported as “significant tumor growth suppression/tumor regression effect”, the “complete regression of tumor (mice with transplanted tumor)” value ([1]; I-A 15 mg/kg oral twice per day in combination with anti-PD-1 antibody 10 mg/kg i.p., CT26.WT, six mice per group) is reported as “five of the six” and the “tumor growth (time course of tumor volume)” value ([1]; I-A alone, 15 mg/kg oral twice per day, day 3 to 21, BALB/c mice, followed to day 48) is reported as “suppressed tumor growth”. The “tumor growth / tumor weight on day 46 after the transplantation” value ([2]; I-A 15 mg/kg oral twice per day (day 3 to 14) in combination with anti-PD-1 antibody 10 mg/kg i.p. twice per week, A20 subcutaneous, FIG. 2) was “significant tumor growth suppression/tumor regression effect” and the “complete regression of tumor (mice with transplanted tumor)” value ([2]; I-A 15 mg/kg oral twice per day in combination with anti-PD-1 antibody 10 mg/kg i.p., A20, six mice per group) was “five of the six”.
